Laboratory results taken from US20250289793A1, “MACROCYCLIC INHIBITORS OF ATP CITRATE LYASE” (Esperion Therapeutics, Inc., priority 2022, published 2025).

Experiments:
ACLY [1] = target: T1, ACLY (Homo sapiens (Human), UniProt P53396); assay: InCell Pulse assay (permeate HEK293 cells, bind to and stabilize ACLY); type: cell-based; settings: HEK293 cells transfected with pICP-ACLY(FL)-ePL; 1 hour at 37° C., 55° C. heat pulse 10 minutes; read-out: InCell Pulse IC50 GMean
Description: HEK293 cells transfected for 24 hours with pICP-ACLY(FL)-ePL (3 μg DNA per T25 flask) using FuGene HD (Promega Corp.) were harvested and cryopreserved. On the day of the assay, the frozen transfected cells were thawed at 37° C., and the storage medium (DMEM with 2 mM L-Glutamine, 10% FBS and a final concentration of DMSO 10%) was exchanged with assay medium (OptiMEM; Gibco™, ThermoFischer Scientific). Compounds were 3-fold serially diluted in DMSO over 11-point concentration range. 100 nL of the corresponding dilutions were spotted into the assay plate (Greiner AG; 384 Well, PP, Small Volume, Deep Well, Natural, cat. no. 784201) followed by the addition of 20 μL of cell suspension adjusted with assay medium to 7.5E4 cells/mL. Subsequently, the plates were sealed and incubated for 1 hour at 37° C. Afterwards, the plates were fixed upside down in a rack and incubated in a 55° C. water bath for 10 minutes. Following this heat pulse step, plates were allowed to reach room temperature for 10 minutes and centrifuged for a few seconds at 1000 rpm and room temperature. 25 μL EA detection solution (working solution: 0.0167× InCell EA Reagent, 0.15× InCell Dilution Buffer, 0.167× InCell Lysis Buffer; 0.667× InCell Substrate Reagent; InCell Hunter Detection kit; Eurofins DiscoverX; cat. no. 96-0079) were added to each well. Afterwards, 42 μL were transferred from the assay plate to the detection plate (Corning Inc., 384-well Low Flange Black Flat Bottom Polystyrene NBS Microplate, cat. no. 3575), followed by an incubation for 1 hour at room temperature, a centrifugation step for 1 minute at 1000 rpm and the detection of the luminescence signal using an EnVision microplate reader (Perkin Elmer Inc.). Concentration-response curve-fitting and IC50 determination was performed using Evotec's in-house evaluation software APlus with a four-parameter non-linear regression fit model. Data was normalized to 0.5% (final concentration) DMSO as low/negative control and 1 μM (final concentration) NDI-094311 as high/positive control.

ACLY [2] = target: T1, ACLY; assay: Human ACLY (hACLY) RF/MS activity assay; type: biochemical; settings: 1 nM hACLY; 30 min pre-incubation; 15 μM Coenzyme A, 50 μM ATP, 50 μM citrate; CoA to Acetyl-CoA by RF/MS; read-out: RFMS IC50 GMean
Description: Compounds of the disclosure were evaluated for their efficacy in inhibiting hACLY using rapid fire mass spectrometry (RF/MS).
The final reaction volume for each compound was 20 μl and consisted of buffer (50 mM Hepes pH 8.0, 10 mM MgCl2, 0.003% BSA, 0.01% Brij35, 50 mM NaCl, 4 mM DTT) and 1 nM hACLY, EV12992, PP6692) using Greiner, 384 well small volume, deep well plates (Cat #784201). A two-fold dilution series with a top concentration of 10 μM was used to record a concentration response curve. Both the substrate (CoA) and product (Acetyl-CoA) were quantified, and given a ratio. […] The final DMSO-concentration was 1% (v/v). Compounds were pre-incubated for 30 min with the buffered enzyme solution at RT (20° C.), and substrate solution was added (final concentrations: 15 μM Coenzyme A, 50 μM ATP and 50 μM citrate) to initiate the enzyme reaction. The enzyme reaction was incubated for additional 30 min at RT. The reaction was quenched upon addition of 40 μl of 5% Formic acid in H2O and centrifuged (4350 rpm at 20° C. for 10 min).
Product formation was quantified using a RF/MS-based method based on mass change of CoA (substrate) to Acetyl-CoA (product).

T1 sequence (P53396 whole entry): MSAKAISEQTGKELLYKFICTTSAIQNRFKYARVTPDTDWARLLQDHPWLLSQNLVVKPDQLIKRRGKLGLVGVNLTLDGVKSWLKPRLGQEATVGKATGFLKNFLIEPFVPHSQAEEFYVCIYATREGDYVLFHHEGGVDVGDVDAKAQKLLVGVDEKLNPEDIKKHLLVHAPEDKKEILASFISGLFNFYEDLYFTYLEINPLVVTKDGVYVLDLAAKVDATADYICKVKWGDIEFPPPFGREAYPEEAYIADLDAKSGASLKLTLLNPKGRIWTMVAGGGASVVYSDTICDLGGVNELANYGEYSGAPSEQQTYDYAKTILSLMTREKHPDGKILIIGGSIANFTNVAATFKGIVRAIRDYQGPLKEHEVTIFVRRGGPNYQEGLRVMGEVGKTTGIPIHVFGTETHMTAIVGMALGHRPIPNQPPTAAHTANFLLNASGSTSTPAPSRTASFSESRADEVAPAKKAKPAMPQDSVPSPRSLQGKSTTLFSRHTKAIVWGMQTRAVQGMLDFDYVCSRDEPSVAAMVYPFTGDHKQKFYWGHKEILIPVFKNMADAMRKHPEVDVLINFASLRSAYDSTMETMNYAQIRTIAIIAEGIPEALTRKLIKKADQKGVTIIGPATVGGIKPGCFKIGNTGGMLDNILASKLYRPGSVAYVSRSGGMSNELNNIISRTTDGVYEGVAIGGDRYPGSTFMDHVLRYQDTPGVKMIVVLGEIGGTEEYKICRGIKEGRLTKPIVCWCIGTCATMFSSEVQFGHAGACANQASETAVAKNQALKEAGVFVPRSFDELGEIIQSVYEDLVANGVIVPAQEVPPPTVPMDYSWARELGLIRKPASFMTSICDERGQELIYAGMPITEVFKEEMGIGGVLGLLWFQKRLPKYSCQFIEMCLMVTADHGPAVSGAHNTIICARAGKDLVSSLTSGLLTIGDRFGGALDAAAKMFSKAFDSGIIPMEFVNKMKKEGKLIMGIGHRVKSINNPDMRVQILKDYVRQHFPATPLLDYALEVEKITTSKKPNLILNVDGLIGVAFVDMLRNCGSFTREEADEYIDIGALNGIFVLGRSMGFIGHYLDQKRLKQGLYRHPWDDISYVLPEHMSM

| Structure (SMILES) | IC50 (ACLY [1]) [nM] | IC50 (ACLY [2]) [nM] |
| --- | --- | --- |
| O=C1OCC2Cc3cccc(c3O2)-c2cc(c(F)cc2F)NS(=O)(=O)c2cc1cc(Cl)c2O (single isomer, unassigned) [Compound 40, 15-chloro-21,23-difluoro-16-hydroxy-18,18-dioxo-8,11-dioxa-18λ6-thia-19-azapentacyclo[18.3.1.16,9.113,17.02,7]hexacosa-1(23),2(7),3,5,13,15,17(25),20(24),21-nonaen-12-one] | 300 to 1000 | 100 to 10000 |
| O=C1OCC2Cc3cccc(c3O2)-c2cc(c(F)cc2F)NS(=O)(=O)c2cc1cc(Cl)c2O (single isomer, unassigned) [Compound 41, 15-chloro-21,23-difluoro-16-hydroxy-18,18-dioxo-8,11-dioxa-18λ6-thia-19-azapentacyclo[18.3.1.16,9.113,17.02,7]hexacosa-1(23),2(7),3,5,13,15,17(25),20(24),21-nonaen-12-one] | < 300 |  |
| CC1CCOC(=O)c2cc(Cl)c(O)c(c2)S(=O)(=O)Nc2cc(c(F)cc2F)-c2ccccc21 (single isomer, unassigned) [Compound 44, 15-chloro-21,23-difluoro-16-hydroxy-8-methyl-18,18-dioxo-11-oxa-18λ6-thia-19-azatetracyclo[18.3.1.113,17.02,7]pentacosa-1(23),2(7),3,5,13,15,17(25),20(24),21-nonaen-12-one] | 1000 to 50000 | 100 to 10000 |
| O=C1NCCOc2ccccc2-c2cc3c(cc2F)CCN3C(=O)c2cc1ccc2O [Compound 11, 24-fluoro-16-hydroxy-8-oxa-11,19-diazapentacyclo[17.5.2.1^13,17.0^2,7.0^22,26]heptacosa-1(24),2,4,6,13,15,17(27),22,25-nonaene-12,18-dione] |  | ≥ 10000 |
| O=C1NCCOc2ccccc2-c2cc(c(F)cc2F)NC(=O)c2cc1ccc2O [Compound 12, 21,23-difluoro-16-hydroxy-8-oxa-11,19-diazatetracyclo[18.3.1.1^13,17.0^2,7]pentacosa-1(23),2,4,6,13,15,17(25),20(24),21-nonaene-12,18-dione] | ≥ 50000 | ≥ 10000 |
| O=C1NCCOc2ccccc2-c2cc(c(F)cc2F)NCc2cc1ccc2O [Compound 13, 21,23-difluoro-16-hydroxy-8-oxa-11,19-diazatetracyclo[18.3.1.1^13,17.0^2,7]pentacosa-1(23),2,4,6,13,15,17(25),20(24),21-nonaen-12-one] | ≥ 50000 | ≥ 10000 |
| O=C1NCCOc2ccccc2-c2cc(c(F)cc2F)CS(=O)(=O)c2cc1cc(Cl)c2O [Compound 14, 15-chloro-21,23-difluoro-16-hydroxy-8-oxa-18lambda6-thia-11-azatetracyclo[18.3.1.1^13,17.0^2,7]pentacosa-1(24),2,4,6,13,15,17(25),20,22-nonaene-12,18,18-trione] | ≥ 50000 | ≥ 10000 |
| COc1c(Cl)cc2cc1S(=O)(=O)Nc1cc(ccc1O)-c1ccccc1OCCOC2=O [Compound 25, 15-chloro-21-hydroxy-16-methoxy-8,11-dioxa-18lambda6-thia-19-azatetracyclo[18.3.1.1^13,17.0^2,7]pentacosa-1(24),2,4,6,13,15,17(25),20,22-nonaene-12,18,18-trione] |  | ≥ 10000 |

Further lines, results first:

| IC50 (ACLY [1]) [nM] | IC50 (ACLY [2]) [nM] | Structure (SMILES) |
| --- | --- | --- |
| < 300 | 20 to 100 | CC1CCOC(=O)c2cc(Cl)c(O)c(c2)S(=O)(=O)Nc2cc(c(F)cc2F)-c2ccccc21 (single isomer, unassigned) [Compound 45, 15-chloro-21,23-difluoro-16-hydroxy-8-methyl-18,18-dioxo-11-oxa-18λ6-thia-19-azatetracyclo[18.3.1.113,17.02,7]pentacosa-1(23),2(7),3,5,13,15,17(25),20(24),21-nonaen-12-one] |
| < 300 | < 20 | O=C1OCCc2ccccc2-c2cc(c(F)cc2F)NS(=O)(=O)c2cc1cc(Cl)c2O [Compound 21, 14-chloro-20,22-difluoro-15-hydroxy-10-oxa-17lambda6-thia-18-azatetracyclo[17.3.1.1^12,16.0^2,7]tetracosa-1(23),2,4,6,12,14,16(24),19,21-nonaene-11,17,17-trione] |
| ≥ 50000 | 20 to 100 | O=C1OCCCc2c(sc3ccccc23)-c2cc(c(F)cc2F)NS(=O)(=O)c2cc1cc(Cl)c2O [Compound 22, 18-chloro-24,26-difluoro-19-hydroxy-14-oxa-3,21lambda6-dithia-22-azapentacyclo[21.3.1.1^16,20.0^2,10.0^4,9]octacosa-1(27),2(10),4,6,8,16,18,20(28),23,25-decaene-15,21,21-trione] |
| < 300 | < 20 | O=C1OCCOc2ccccc2-c2ccc(F)c(c2)NS(=O)(=O)c2cc1cc(Cl)c2O [Compound 23, 15-chloro-21-fluoro-16-hydroxy-8,11-dioxa-18lambda6-thia-19-azatetracyclo[18.3.1.1^13,17.0^2,7]pentacosa-1(24),2,4,6,13,15,17(25),20,22-nonaene-12,18,18-trione] |
| < 300 | 20 to 100 | O=C1OCCOc2ccc(Br)cc2-c2cc(c(F)cc2F)NS(=O)(=O)c2cc1cc(Cl)c2O [Compound 24, 4-bromo-15-chloro-21,23-difluoro-16-hydroxy-8,11-dioxa-18lambda6-thia-19-azatetracyclo[18.3.1.1^13,17.0^2,7]pentacosa-1(24),2,4,6,13,15,17(25),20,22-nonaene-12,18,18-trione] |
| 300 to 1000 | < 20 | COc1ccc2cc1NS(=O)(=O)c1cc(cc(Cl)c1O)C(=O)OCCOc1ccccc1-2 [Compound 26, 15-chloro-16-hydroxy-21-methoxy-8,11-dioxa-18lambda6-thia-19-azatetracyclo[18.3.1.1^13,17.0^2,7]pentacosa-1(24),2,4,6,13,15,17(25),20,22-nonaene-12,18,18-trione] |
| ≥ 50000 | 20 to 100 | O=C1OCCCn2c(cc3ccccc32)-c2cc(c(F)cc2F)NS(=O)(=O)c2cc1cc(Cl)c2O [Compound 27, 18-chloro-24,26-difluoro-19-hydroxy-14-oxa-21lambda6-thia-10,22-diazapentacyclo[21.3.1.1^16,20.0^2,10.0^4,9]octacosa-1(27),2,4,6,8,16,18,20(28),23,25-decaene-15,21,21-trione] |
| 300 to 1000 | 20 to 100 | N#Cc1ccc2c(c1)-c1cc(c(F)cc1F)NS(=O)(=O)c1cc(cc(Cl)c1O)C(=O)OCCO2 [Compound 28, 15-chloro-21,23-difluoro-16-hydroxy-12,18,18-trioxo-8,11-dioxa-18lambda6-thia-19-azatetracyclo[18.3.1.1^13,17.0^2,7]pentacosa-1(24),2,4,6,13,15,17(25),20,22-nonaene-4-carbonitrile] |
| 300 to 1000 | 20 to 100 | O=C1OCCCOc2cc(F)ccc2-c2cc(c(F)cc2F)NS(=O)(=O)c2cc1cc(Cl)c2O [Compound 29, 16-chloro-5,22,24-trifluoro-17-hydroxy-8,12-dioxa-19lambda6-thia-20-azatetracyclo[19.3.1^1,4,18.0^2,7]hexacosa-1(25),2,4,6,14,16,18(26),21,23-nonaene-13,19,19-trione] |
| 1000 to 50000 | 20 to 100 | O=C1NCCc2ccccc2-c2cc(c(F)cc2F)NS(=O)(=O)c2cc1cc(Cl)c2O [Compound 30, 14-chloro-20,22-difluoro-15-hydroxy-17lambda6-thia-10,18-diazatetracyclo[17.3.1.1^12,16.0^2,7]tetracosa-1(23),2,4,6,12,14,16(24),19,21-nonaene-11,17,17-trione] |
|  | 20 to 100 | O=C1OCCOc2ccccc2-c2ccc(F)c(c2)NS(=O)(=O)c2cc1ncc2O [Compound 66, 21-fluoro-16-hydroxy-18,18-dioxo-8,11-dioxa-18λ6-thia-14,19-diazatetracyclo[18.3.1.113,17.02,7]pentacosa-1(24),2,4,6,13,15,17(25),20,22-nonaen-12-one] |
